Measured values from patent US7550492B2, “Benzo[1,2,5]thiadiazole compounds” (Janssen Pharmaceutica N.V., priority 2003, dated 2009).
Where a name gives a salt, the structure may show the parent alone.

Target: T1, CCK2 receptor (Homo sapiens, UniProt P32239)
T1 construct: Membranes were prepared from the HEKZFP cells after induction; endogenous in cells
T1 sequence (P32239 1-447): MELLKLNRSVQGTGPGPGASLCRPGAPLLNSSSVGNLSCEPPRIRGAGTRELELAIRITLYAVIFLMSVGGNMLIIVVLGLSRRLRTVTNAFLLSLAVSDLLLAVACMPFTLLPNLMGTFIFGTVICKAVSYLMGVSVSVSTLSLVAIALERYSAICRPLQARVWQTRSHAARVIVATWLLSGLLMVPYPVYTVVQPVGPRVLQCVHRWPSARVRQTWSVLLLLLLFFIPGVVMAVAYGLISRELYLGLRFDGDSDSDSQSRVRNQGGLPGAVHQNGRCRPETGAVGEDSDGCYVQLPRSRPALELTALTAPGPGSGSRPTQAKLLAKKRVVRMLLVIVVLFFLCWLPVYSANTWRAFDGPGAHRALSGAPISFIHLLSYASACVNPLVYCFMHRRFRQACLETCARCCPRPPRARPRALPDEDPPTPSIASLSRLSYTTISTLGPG
Assay: Binding Assay: competition with [125I]-BH-CCK-8S in HEKZFP cell membranes
Details: 60 min at 21±3° C., Cheng-Prusoff
Description: Zinc Finger Proteins (ZFP) specific for the CCK2R gene were identified by Sangamo Biosciences. The ZFP domain was fused with the herpes simplex virus VP16 activation domain, and the fusion protein was subsequently cloned into the pcDNA3 mammalian expression vector (Invitrogen, San Diego, Calif.). Tet-inducible cell lines expressing the coding region from the ZFP vector were created using the T-REx-293™ cell line (Invitrogen). After 2 weeks of selection in culture medium containing […] Zeocin (Invitrogen), sixty drug-resistant stable clones were isolated and analyzed for ZFP expression as well as CCK2R induction upon addition of doxycycline to the culture medium. The cell line with the most appropriate CCK2R ZFP construct was used in all further assays and was termed the HEKZFP cell line.
HEKZFP cells were grown in DMEM supplemented with L-glutamine (2 mM), penicillin (50 units/mL) and streptomycin (50 μg/mL) and 10% FBS (v/v). HEKZFP cells were treated with […] doxycycline (Sigma-Aldrich, MO; USA) for 2 days to de-repress the tet-regulated expression of the CCK2 receptor selective zinc finger proteins and were harvested using a rubber cell scraper.
Membranes were prepared from the HEKZFP cells after induction. Frozen cell pellets (−40° C.) were thawed in 14 mL of buffer A (10 mM HEPES, 130 mM NaCl, 4.7 mM KCl, 5 mM MgCl, 1 mM EGTA and 15.4 mg/100 mL bacitracin at pH 7.2), adapted from E. A. Harper et al. (Br. J. Pharmacol. (1996) 118(7):1717-1726). The thawed pellets were homogenized using a Polytron PT-10 (7×1 s). The homogenates were centrifuged for 5 min at 1500 rpm (600×g), and the resulting pellets were discarded. The supernatants were re-centrifuged in order to collect the receptor-membrane pellets (25 min 15,000 rpm; 39,000×g), which were re-suspended in buffer A.
All assays were conducted in 96-well plate (GF/B millipore filter plates) using buffer A. For the optimal cell number determination experiments, cells in concentrations ranging from 2.5×10^5 to 12.5×10^5 cells/well were incubated with 20 pM [^125I]-BH-CCK-8S (50 μL 60 pM) solution) in a total volume of 150 μL. Total binding of [^125I]-BH-CCK-8S was determined in the presence of 15 μL of buffer A. Non-specific binding of [^125I]-BH-CCK-8S was determined in the presence of 15 μL of 10 μM YF476, a CCK-2 receptor selective antagonist that is structurally unrelated to the radioligand [^125I]-BH-CCK-8S. The assay preparation was incubated for 1 h at 21±3° C., and then the assay was terminated by rapid filtration of the preparation under reduced pressure. The loaded filters were washed three times using undiluted PBS (100 μL), and then 100 μL of scintillation fluid was added to the filter plate. Bound radioactivity was determined using a Topcount (Packard BioScience, Meriden, Conn.) with a count time of 1 min. From these experiments a cell concentration of 1 pellet in 15 mL of buffer was chosen for use in other assays. To validate the radioligand concentration and incubation time for the assay, saturation and kinetic binding studies were also conducted (see M. F. Morton, The Pharmacological Characterization of Cholecystokinin Receptors in the Human Gastrointestinal Tract. PhD Thesis, University of London, 2000). […] The assay was then terminated according to the procedure outlined above.
The pKi values were determined using the equation of Y.-C. Cheng and W. H. Prusoff (Biochem. Pharmacol., 1973, 22(23):3099-3108):
To circumvent problems associated with computer-assisted data analysis of compounds with low affinity, the data obtained in the current study were weighted according to a method described by Morton. In brief, 100% and 0% specific binding were defined independently using total binding and binding obtained in the presence of a high concentration of the reference antagonist, 2-NAP.

pKi | Ki | Compound
– | 7.94 nM | C[C@H](c1ccccc1)N(C)C(=O)c1ccc(C(F)(F)F)cc1NS(=O)(=O)c1cccc2nsnc12 [Example 195, (R)-2-(Benzo[1,2,5]thiadiazole-4sulfonylamino)-N-methyl-N-(1-phenyl-ethyl)-4-trifluoromethyl-benzamide]
– | 25.1 nM | C[C@@H](NC(=O)c1ccc(Br)cc1NS(=O)(=O)c1cccc2nsnc12)c1ccc(F)cc1F [Example 155]
– | 126 nM | C[C@H](c1ccccc1)N(C)C(=O)c1cc(Cl)ccc1NS(=O)(=O)c1cccc2nsnc12 [Example 118, (R)-2-(Benzo[1,2,5]thiadiazole-4-sulfonylamino)-5-chloro-N-methyl-N-(1-phenyl-ethyl)-benzamide]
– | 631 nM | CCCCNC(=O)c1ccc(Cl)cc1NS(=O)(=O)c1cccc2nsnc12 [Example 59, 2-(Benzo[1,2,5]thiadiazole-4-sulfonylamino)-N-butyl-4-chloro-benzamide]
– | 5.01 nM | CC(c1ccc(F)cc1)N(C)C(=O)c1ccc(Br)cc1NS(=O)(=O)c1cccc2nsnc12 (stereo not drawn) [Example 112, 2-(Benzo[1,2,5]thiadiazole-4-sulfonylamino)-4-bromo-N-[1-(4-fluoro-phenyl)-ethyl]-N-methyl-benzamide]
– | 126 nM | CN(C(=O)c1ccc(Cl)cc1NS(=O)(=O)c1cccc2nsnc12)c1ccccc1 [Example 58, 2-(Benzo[1,2,5]thiadiazole-4-sulfonylamino)-4-chloro-N-methyl-N-phenyl-benzamide]
– | 15.8 nM | CN(Cc1ccc(F)cc1F)C(=O)c1ccc(Br)cc1NS(=O)(=O)c1cccc2nsnc12 [Example 111, 2-(Benzo[1,2,5]thiadiazole-4-sulfonylamino)-4-bromo-N-(2,4-difluoro-benzyl)-N-methyl-benzamide]
7.1 | – | O=C(c1ccc(Cl)cc1NS(=O)(=O)c1cccc2nsnc12)N1CCSC1 [Example 79, Benzo[1,2,5]thiadiazole-4-sulfonic acid [5-chloro-2-(thiazolidine-3-carbonyl)-phenyl]-amide]
– | 398 nM | CON(C)C(=O)c1ccc(Br)cc1NS(=O)(=O)c1cccc2nsnc12 [Example 117, 2-(Benzo[1,2,5]thiadiazole-4-sulfonylamino)-4-bromo-N-methoxy-N-methyl-benzamide]
– | 10 nM | CC(c1ccc(F)cc1)N(C)C(=O)c1ccc(I)cc1NS(=O)(=O)c1cccc2nsnc12 (stereo not drawn) [Example 105, 2-(Benzo[1,2,5]thiadiazole-4-sulfonylamino)-N-[1-(4-fluoro-phenyl)-ethyl]-4-iodo-N-methyl-benzamide]

Further lines, the compound ahead of its results:

Compound | pKi | Ki
O=C(c1ccc(I)cc1NS(=O)(=O)c1cccc2nsnc12)N1CCOCC1 [Example 138, Benzo[1,2,5]thiadiazole-4-sulfonic acid [5-iodo-2-(morpholine-4-carbonyl)-phenyl]-amide] | 7.5 | –
O=C(c1cc(Cl)c(Cl)cc1NS(=O)(=O)c1cccc2nsnc12)N1CCCCC1 [Example 36, Benzo[1,2,5]thiadiazole-4-sulfonic acid [4,5-dichloro-2-(piperidine-1-carbonyl)-phenyl]-amide] | 7.8 | –
CC1CCCCN1C(=O)c1ccc(Cl)cc1NS(=O)(=O)c1cccc2nsnc12 (stereo not drawn) [Example 70, Benzo[1,2,5]thiadiazole-4-sulfonic acid [5-chloro-2-(2-methyl-piperidine-1-carbonyl)-phenyl]-amide] | 7.5 | –
O=C(c1ccc([N+](=O)[O-])cc1NS(=O)(=O)c1cccc2nsnc12)N1CCCCC1 [Example 2, Benzo[1,2,5]thiadiazole-4-sulfonic acid [5-nitro-2-(piperidine-1-carbonyl)-phenyl]-amide] | 6.8 | –
O=C(c1ccc(I)cc1NS(=O)(=O)c1cccc2nsnc12)N1CCCCC1 [Example 6, Benzo[1,2,5]thiadiazole-4-sulfonic acid [5-iodo-2-(piperidine-1-carbonyl)-phenyl]-amide] | – | 3.98 nM
CN(C)CC(c1ccccc1)N(C)C(=O)c1ccc(Cl)cc1NS(=O)(=O)c1cccc2nsnc12 (stereo not drawn) [Example 48, 2-(Benzo[1,2,5]thiadiazole-4-sulfonylamino)-4-chloro-N-(2-dimethylamino-1-phenyl-ethyl)-N-methylbenzamide TFA salt] | – | 398 nM
O=C(c1ccc(-c2cccs2)cc1NS(=O)(=O)c1cccc2nsnc12)N1CCCCC1 [Example 22, Benzo[1,2,5]thiadiazole-4-sulfonic acid [2-(piperidine-1-carbonyl)-5-thiophen-2-yl-phenyl]-amide] | – | 200 nM
O=C(c1cc2ccccc2cc1NS(=O)(=O)c1cccc2nsnc12)N1CCCCC1 [Example 4, Benzo[1,2,5]thiadiazole-4-sulfonic acid [3-(piperidine-1-carbonyl)-naphthalen-2-yl]-amide] | – | 100 nM
Cc1ccc(C(=O)N[C@H](C)c2ccc(F)cc2F)c(NS(=O)(=O)c2cccc3nsnc23)c1 [Example 167, (R)-2-(Benzo[1,2,5]thiadiazole-4-sulfonylamino)-N-[1-(2,4-difluoro-phenyl)-ethyl]-4-methyl-benzamide] | – | 25.1 nM

Test system: not given
Assay: not given
Details: not given

melting point | Compound
125 to 127 °C | CC(C)c1ccc(C(=O)N2CCCCC2)c(NS(=O)(=O)c2cccc3nsnc23)c1 [Example 37, Benzo[1,2,5]thiadiazole-4-sulfonic acid [5-isopropyl-2-(piperidine-1-carbonyl)-phenyl]-amide]
178 to 179 °C | O=C(c1cc(Cl)c(Cl)cc1NS(=O)(=O)c1cccc2nsnc12)N1CCCCC1 [Example 36, Benzo[1,2,5]thiadiazole-4-sulfonic acid [4,5-dichloro-2-(piperidine-1-carbonyl)-phenyl]-amide]
